In patent publication US11833256B2, “Selective RARγ ligand-loaded nanoparticles for manipulation of targeted bone growth” (University Of Maryland, Baltimore, priority 2017, dated 2023):

How the values were obtained:
[1] = test system: ectopic endochondral bone formation in BMP-Matrigel; test: Ectopic bone formation model (rhBMP-2-containing Matrigel injected subcutaneously); assay type: in vivo, mouse; conditions: for biological activities in an ectopic bone formation model: mouse, in vivo; for ectopic bone formation (μCT, BV/TV): oral gavage on day 3, 5 and 7, ectopic masses collected day 12, vs vehicle
Description: Ectopic bone formation was induced in mice according to known methods. See Shimono et al., J. Orthop. Res. 28(2):271-277, 2010. Briefly, recombinant human bone morphogenetic protein-2 (rhBMP-2; Gene Script™ Corp., Piscataway, NJ) was added to growth-factor reduced Matrigel™ (BD Bioscience™, Inc., Franklin Lakes, NJ) on ice to a final concentration of 4 µg/mL. Two hundred fifty 250 μL, rhBMP-2-containing Matrigel™ was injected into the left and right subcutaneous abdominal region of 2-month-old CD-1 female mice. Ectopic tissue samples were harvested and subjected to μCT and histological analyses.
After fixation, samples were subjected to μCT analysis using a CT35 scanner (SCANCO USA™ Inc., Southeastern, PA) at 55 kV and […] for bone volume/tissue volume (BV/TV) analysis. Normalized BV/TV means were calculated by ratios of experimental versus control values.
To further evaluate the roles of RARγ and the efficacy of RARγ antagonists on bone formation, the effects of three selective RARγ antagonists were compared with the RARγ agonist, NRX204647, using a mouse ectopic bone model. Recombinant human BMP-2 containing Matrigel™ (BMPMatrigel) was transplanted subcutaneously in the abdomens of CD-1 female mice (ectopic bone formation model). The injected BMP-Matrigel™ mixture rapidly solidified and developed endochondral bone within 10 to 12 days (see FIG. 13B).
The BMP-Matrigel™ injected mice were randomly subdivided into groups and subjected to oral gavage with vehicle corn oil, RARγ agonist or each of the 3 antagonists on day 3, 5 and 7 (see structures in FIG. 13A). The control mouse with vehicle treatment had inductive masses in the Matrigel™-injected sites (see FIG. 13B). Ectopic tissue masses were collected on day 12 and subjected to X-ray and μCT analyses. Micro-CT images of pellets harvested 12 days after implantation were taken. FIG. 13C.
Mice with Matrigel™ Pellets as described above were administered vehicle or 4 mg/kg CD2665 on day 3, 5 and 7 after BMP2-Matrigel™ transplantation by gavage, and then analyzed on Day 7 or Day 12. FIG. 14A. Separately, a second group of mice were administered vehicle or 4 mg/kg CD2665 on day 7, 9 and 11 after BMP2-Matrigel transplantation and analyzed either on day 12 or 17. Pellets were collected at the indicated time, fixed and subjected to μCT analysis (bottom row). Pellets were then sectioned and stained with Alcian blue for quantitation of cartilage (top row).
Samples were first subjected to μCT analysis and were then sectioned and stained with Alcian blue for quantification of cartilage. For each group, 3 sections each (1 mm interval of 4 independent samples) were analyzed. […] For the experiments shown in FIG. 15A, mice were administered vehicle or 4 mg/kg of CD2665 by gavage on day 3, 5 and 7 from BMP-Matrigel™ implantation and samples were collected on day 7 or 12.
To examine these later stages more closely, mice implanted with BMP-Matrigel™ were treated with a RARγ antagonist on day 7, 9 and 11, and the ectopic tissue masses were analyzed on day 12 or 17 (FIG. 15B). […] The findings reaffirm that RARγ antagonists enhance cartilage formation during the middle stages of endochondral ossification and eventually lead to increases in bone formation. For experiments in FIG. 15B, mice were administered vehicle or 4 mg/kg CD2665 by gavage on day 7, 9 and 11 from implantation and analyzed on day 12 or 17. […]
Subcutaneous transplantation of rhBMP-2 containing Matrigel™ (BMP-Matrigel™) pellets in the abdomens of 2-month-old CD-1 female mice was performed. On day 3 and 10, 5 μl of empty NP or 7c-loaded NP (7c-NP: 3.5 μg in 5 μl) were injected around the Matrigel™ pellets. Ectopic bone tissue was corrected on day 15 and subjected to μCT analysis.

[2] = Hydrophobicity of acetaminophen-capped prodrug derivative versus parent; assay type: physicochemical; conditions: acetaminophen-capped derivative vs parent retinoid
Description: In order to produce an in situ activatable, reversibly hydrophobized prodrug derivatives of a RARγ agonist, a pro-drug can be delivered in a nanoparticle formulation. […] However, the ionizable carboxylic group promotes the partitioning of the compound from the particle to the surrounding aqueous medium. […] The compound would be activatable upon release can increase the stability of the particle-cargo association and help achieve a more lasting and highly localized therapeutic effect. Such constructs are in essence mutual prodrugs or co-drugs, as they regenerate in one step the retinoid compound and acetaminophen, a biologically active “helper” agent, which can play an important supporting role in therapy.

[3] = test system: ectopic bone formation in RARγ-null mice; test: Ectopic bone formation model in RARγ-null mice; assay type: in vivo, mouse; conditions: N=8
Description: To verify specificity of this drug action, similar ectopic bone formation experiments were carried out with RARγ-null mice treated with vehicle or one of the antagonists (CD2665) (FIG. 13E).

[4] = test system: pSmad1/5/8-positive cells (canonical BMP signaling); test: pSmad1/5/8 immunohistochemistry of ectopic BMP-Matrigel masses; assay type: in vivo, mouse; conditions: 4 mg/kg on day 1 and 3; samples day 5
Description: Tissue samples were fixed in 4% paraformaldehyde overnight at 4° C., decalcified in 10% EDTA (for calcified samples only), processed for paraffin embedding, and serially sectioned at 6 μm-thickness. Sections were stained with hematoxylin and eosin (HE) for general profiling or with Alcian blue at pH 1.0 and eosin counter-staining. For immunohistochemical analysis, antigen retrieval was performed with 0.1% pepsin in 0.02 N—HCl for 10 minutes, and sections were incubated with blocking solution (0.1 M NaPB, 1% BSA and 10% normal goat serum) for 1 hour and then with primary antibodies against phospho-Smad1/5/8 (Cell Signaling Technology™, 9511, 1:100) overnight at 4° C. The antibodies were visualized using rabbit specific HRP/DAB (ABC™) detection kit (Abcam™, ab64261). After detection, sections were counter-stained with 0.5% methyl green.
There are reciprocal antagonistic relationships between the retinoid and BMP signaling pathways in several biological systems. In addition, the suppression of chondrogenesis and heterotopic ossification by RARγ agonists involved inhibition of canonical BMP signaling. Thus, it became important to determine if and how BMP signaling was affected in the various experimental approaches here. […]
First, the distribution of phosphorylated Smad1/5/8-positive cells was determined within regenerating tibial bone defect areas in wild type and RARγ-null mice (FIG. 6A). […]

[5] = 4 mg/kg gavage day 3, 5, 7, analysed day 12
[6] = 4 mg/kg gavage day 7, 9, 11, analysed day 12

Structure (SMILES) | biological activities in an ectopic bone formation model [1] | ectopic bone formation (μCT, BV/TV) [1] | more hydrophobic derivative if modified with acetaminophen [2] [fold] | amount of cartilage in ectopic masses (Alcian blue) ([1]; 4 mg/kg gavage day 3, 5, 7, analysed day 7) | area of cartilage in ectopic masses (Alcian blue) [1, 5] | mineralized tissue volume vs control (μCT) [1, 5] | amount of mineralized tissue vs control [1, 6] | cartilaginous tissue in ectopic masses [1, 6] | volume of bone vs control ([1]; 4 mg/kg gavage day 7, 9, 11, analysed day 17) | ectopic bone formation in RARγ-null mice, drug vs vehicle [3] | pSmad1/5/8-positive cells in ectopic BMP-Matrigel masses [4]
CC1(C)CCC(C)(C)c2cc(C3(c4ccc5cc(C(=O)O)ccc5c4)SCCS3)ccc21 [MM11253] | proven biological activities | significantly increased the amount of detectable bone | 5 | – | – | – | – | – | – | – | –
COCCOCOc1cc2ccc(-c3ccc(C(=O)O)cc3)cc2cc1C12CC3CC(CC(C3)C1)C2 [CD2665] | proven biological activities | significantly increased the amount of detectable bone | – | significantly higher amount of cartilage than controls | still more abundant in treated than control samples | about 2 fold | not significant | more cartilaginous tissue | significantly larger volume of bone than controls | No significant differences in bone formation | more numerous and obvious
